# How the values were obtained:
# [1] = target: T1, TLR7 (Homo sapiens, UniProt Q9NYK1); experiment: Whole blood assay, stimulation with TLR7 selective agonist; type: cell-based; conditions: for IFNα and IL-6 production: challenged with the TLR-7 agonist
# T1 construct: Blood was drawn from healthy donors into Vacutainer tubes with EDTA; endogenous in cells; host or cells: human whole blood (healthy donors)
# T1 sequence (Q9NYK1 27-1049): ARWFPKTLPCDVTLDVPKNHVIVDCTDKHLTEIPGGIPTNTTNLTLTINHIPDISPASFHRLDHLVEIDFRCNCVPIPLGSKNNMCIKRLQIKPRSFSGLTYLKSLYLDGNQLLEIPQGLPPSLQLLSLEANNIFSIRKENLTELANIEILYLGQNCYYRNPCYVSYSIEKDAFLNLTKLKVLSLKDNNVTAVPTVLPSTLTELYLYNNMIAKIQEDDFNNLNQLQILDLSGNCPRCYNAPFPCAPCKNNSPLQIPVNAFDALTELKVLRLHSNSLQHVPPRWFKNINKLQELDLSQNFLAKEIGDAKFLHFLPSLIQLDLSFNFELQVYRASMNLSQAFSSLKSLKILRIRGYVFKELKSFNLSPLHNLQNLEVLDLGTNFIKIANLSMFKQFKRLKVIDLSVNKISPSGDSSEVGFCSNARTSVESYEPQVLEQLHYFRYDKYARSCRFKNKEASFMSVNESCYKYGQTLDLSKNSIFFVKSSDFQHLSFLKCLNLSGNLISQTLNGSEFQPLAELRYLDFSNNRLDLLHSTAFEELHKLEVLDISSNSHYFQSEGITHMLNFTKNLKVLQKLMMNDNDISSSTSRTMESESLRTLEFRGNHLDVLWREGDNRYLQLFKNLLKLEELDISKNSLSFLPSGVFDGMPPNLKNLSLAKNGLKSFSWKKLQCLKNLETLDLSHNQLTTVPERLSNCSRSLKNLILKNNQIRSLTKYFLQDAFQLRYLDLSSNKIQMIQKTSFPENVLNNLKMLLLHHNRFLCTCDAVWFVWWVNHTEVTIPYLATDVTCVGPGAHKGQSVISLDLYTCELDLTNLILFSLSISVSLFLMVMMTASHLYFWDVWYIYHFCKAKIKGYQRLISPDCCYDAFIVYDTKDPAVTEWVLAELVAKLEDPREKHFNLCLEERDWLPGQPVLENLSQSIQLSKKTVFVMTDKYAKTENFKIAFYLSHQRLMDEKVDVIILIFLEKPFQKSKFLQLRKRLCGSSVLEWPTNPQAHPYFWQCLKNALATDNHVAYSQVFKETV
# Description: (§1) Whole blood assay: Blood was drawn from healthy donors into Vacutainer tubes with EDTA (BD Biosciences) and assay was performed within 2 hr. Four parts blood were diluted with one part PBS and 150 μl/well was dispensed into 96-well plates. Compound dilutions were added in triplicate and plates were incubated at 37° C. 5% CO2 for 30 min. For TLR7/8 testing, R848 (resiquimod) was added to 1 μM, for TLR7, the TLR7 selective agonist shown below was added to 3 μM and for TLR8, the TLR8 selective agonist shown below was added to 0.5 μM. Plates were incubated overnight 37° C. 5% CO2 and cytokines were measured in the plasma by AlphaLISA.
# (§2) IL-6, TNF-alpha and IFN-alpha were measured in plasma 16 h later.
# The TLR 7 agonist used in the above experiment was: […]
# [2] = tested on: TLR7/8; experiment: Whole blood assay, stimulation with TLR7/8 agonist R848 (resiquimod); type: cell-based, human; conditions: challenged with TLR7/8 agonist R848
# Description: as §1, §2
# [3] = tested on: TLR7 and TLR8; experiment: Phase I healthy volunteer study, ex vivo-stimulated cytokine secretion; type: in vivo, human; conditions: exposure-dependent manner
# [4] = tested on: PBMCs; experiment: PBMCs stimulated with GU-rich RNA oligonucleotides, cytokines by AlphaLISA; type: cell-based, human; conditions: RNA oligonucleotides 26 μg/ml, overnight; for concentration of IFN-alpha after stimulation: FIG. 7A; for concentration of IL-6 after stimulation: FIG. 7B; for concentration of TNF-alpha after stimulation: FIG. 7C
# Description: Blood was drawn from healthy donors and PBMCs isolated using gradient centrifugation. PBMCs were dispensed into 96-well plates and M5049 dilutions were added in triplicate to selected wells. Plates were incubated at 37° C. and 5% CO2 for 30 minutes. Then, RNA oligonucleotides were added to the cells at a concentration of 26 μg/ml for stimulation. The treated PBMCs were incubated overnight at 37° C. and 5% CO2, and IFNa, TNFa and IL-6 in the supernatant were measured the next day by AlphaLISA.
# [5] = tested on: TLR7/8; experiment: Cytokine inhibition in mice challenged with TLR agonist
# [6] = target: T2, TLR8 (Homo sapiens, UniProt Q9NR97); experiment: Whole blood assay, stimulation with TLR8 selective agonist; type: cell-based; conditions: for IFNα and IL-6 production: challenged with the TLR-8 agonist
# T2 construct: Blood was drawn from healthy donors into Vacutainer tubes with EDTA; endogenous in cells; host or cells: human whole blood (healthy donors)
# T2 sequence (Q9NR97 27-1041): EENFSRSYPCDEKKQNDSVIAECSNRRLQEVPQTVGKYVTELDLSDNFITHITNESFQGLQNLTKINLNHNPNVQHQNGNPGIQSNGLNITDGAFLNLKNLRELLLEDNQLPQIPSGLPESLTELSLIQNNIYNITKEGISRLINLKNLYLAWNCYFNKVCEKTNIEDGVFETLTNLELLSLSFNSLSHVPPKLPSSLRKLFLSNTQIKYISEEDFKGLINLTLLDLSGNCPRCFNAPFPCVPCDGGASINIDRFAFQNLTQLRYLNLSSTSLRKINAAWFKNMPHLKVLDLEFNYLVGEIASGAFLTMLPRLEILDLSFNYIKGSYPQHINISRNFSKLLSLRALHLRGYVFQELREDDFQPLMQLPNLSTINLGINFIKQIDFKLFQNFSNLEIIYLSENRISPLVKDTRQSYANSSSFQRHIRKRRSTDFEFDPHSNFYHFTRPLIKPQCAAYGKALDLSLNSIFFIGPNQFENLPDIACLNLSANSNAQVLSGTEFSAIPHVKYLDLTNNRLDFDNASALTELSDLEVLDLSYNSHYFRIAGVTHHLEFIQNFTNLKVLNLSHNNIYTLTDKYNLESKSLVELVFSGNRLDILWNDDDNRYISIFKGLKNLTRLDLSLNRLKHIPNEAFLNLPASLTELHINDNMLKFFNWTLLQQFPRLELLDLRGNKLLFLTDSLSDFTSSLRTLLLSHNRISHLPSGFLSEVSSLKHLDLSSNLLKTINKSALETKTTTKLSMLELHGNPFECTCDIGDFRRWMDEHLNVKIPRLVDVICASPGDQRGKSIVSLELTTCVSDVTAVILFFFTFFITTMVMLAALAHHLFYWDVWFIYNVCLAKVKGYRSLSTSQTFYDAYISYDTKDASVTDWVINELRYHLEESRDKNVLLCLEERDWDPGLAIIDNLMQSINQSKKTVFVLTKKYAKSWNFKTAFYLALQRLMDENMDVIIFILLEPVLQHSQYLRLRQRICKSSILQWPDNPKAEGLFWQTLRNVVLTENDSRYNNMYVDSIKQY
# Description: as §1, §2
# [7] = tested on: C57BL/6 mice; experiment: C57BL/6 mice dosed i.v. with miR-122, plasma cytokines and lung gene signatures; type: in vivo; conditions: for lung IFN gene signature score: FIG. 9A; for plasma levels of IFNα: 0.1, 1, 10 mg/kg p.o., P<0.0074 for all concentrations, FIG. 8A; for plasma levels of IFNα / plasma levels of IL-6: 4 hours after miR-122; for plasma levels of IL-6: p.o., P=0.0237 at 1 mg/kg, P=0.0147 at 10 mg/kg, FIG. 8B
# Description: Healthy female C57BL/6 mice were dosed with vehicle (0.1 M Na citrate pH 3.0) or increasing doses (0.1, 1, 10 mg/kg) of M5049 p.o. After 30 min, mice were dosed with a single i.v. injection of 2 mg/kg miR-122 (Sigma) complexed with Invivofectamine (Life Technologies). At 4 hours after miRNA dosing, mice were euthanized and blood was collected for cytokine analysis in plasma and lungs were collected for gene expression analysis. IFN-α and IL-6 were measured in the plasma samples by Alphalisa (Perkin Elmer). Lungs were homogenized using the OctoMacs and M tubes (Qiagen) in RLT buffer and RNA was extracted using the RNEasy mini kit (Qiagen). Gene expression analysis was performed using a custom NanoString panel. Gene signature scores were determined by calculating the Log 2 fold change versus vehicle alone and then using the median Log 2 fold change for all genes on the signature as the signature score for each mouse. Genes used for the IFN gene signature were: OAS1, OAS2, OAS3, OASL, BST2, CMPK2, GBP5, HERC6, IFI44, IFIT1, IFIT2, IFIT3, IFIH1, CXCL10, ISG15, MX1, MX2, STAT1, TNFSF10, USP18, RSAD2, and IRF7. Genes used for the NF-kB gene signature were: IL1RN, TNFAIP3, CSF1, IRF1, IL1B, IL6, NFKBIA, PTGS2, TAP1, and TNF. […] Administration of miR-122 lead to an increase of both, the IFN and NFkB gene signature scores indicating local lung inflammation.
# [8] = tested on: BXSB-Yaa mice; experiment: BXSB-Yaa mouse lupus model
structure (smiles),measurement,setting,value
"N#Cc1ccc(N2C[C@H](N)C[C@H](C(F)(F)F)C2)c2cccnc12 (single isomer, unassigned) [Compound 3]",IFNα and IL-6 production,[1],dose-dependently decreases
same,production of IL-6 and TNF-alpha,"[1]; samples stimulated with TLR 7 agonist, vs. hydroxychloroquine, FIG. 2A",significantly reduces the amount of the cytokines
same,IFNα and IL-6 production,[2],dose-dependently decreases
same,"secretion of ex vivo-stimulated cytokines including IL-6, TNFα, and IFNα",[3],suppressed
same,concentration of IFN-alpha after stimulation,[4],significant reduction
same,concentration of IFN-alpha after stimulation,[4]; listed as M5049,significantly suppresses
same,concentration of IL-6 after stimulation,[4],significant reduction
same,concentration of IL-6 after stimulation,[4]; listed as M5049,significantly suppresses
same,concentration of TNF-alpha after stimulation,[4],significant reduction
same,concentration of TNF-alpha after stimulation,[4]; listed as M5049,significantly suppresses
same,IL-6 inhibition,[5]; low doses (0.1 mg/kg),100%
same,IFNα inhibition,[5]; same concentration (0.1 mg/kg),only partial
same,IFNα and IL-6 production,[6],dose-dependently decreases
same,production of IL-6 and TNF-alpha,"[6]; samples stimulated with TLR 8 agonist, vs. hydroxychloroquine, FIG. 2B",significantly reduces the amount of the cytokines
same,lung IFN gene signature score,[7]; 10 mg/kg,complete reduction of IFN
same,plasma levels of IFNα,[7],reduction
same,plasma levels of IFNα,[7]; listed as M5049,significantly reduced
same,lung IFN gene signature score,"[7]; 1 and 10 mg/kg p.o., P<0.01",reduced both gene signature scores
same,lung NFkB gene signature score,"[7]; 1 and 10 mg/kg p.o., P<0.01, FIG. 9B",reduced both gene signature scores
same,plasma levels of IL-6,[7]; 10 mg/kg,reduction
same,plasma levels of IL-6,"[7]; listed as M5049, 10 mg/kg",significantly reduced
same,survival,"[8]; BXSB-Yaa mice, once per day oral gavage, FIG. 3A",dose-dependent improvement in survival
same,kidney disease (proteinuria),"[8]; BXSB-Yaa mice, oral gavage, FIG. 3B, 3C",reduction in kidney disease
same,type I IFN response (blood IFN gene signature score),"[8]; BXSB-Yaa mice, only seen at high doses, FIG. 3D",inhibited
same,disease in mouse lupus models,[8]; oral gavage,reduces disease
"COc1ncc(N2C[C@@H](C)C[C@@H](N)C2)c2cccnc12 [Compound 4, (3R,5S)-1-(8-Methoxy-[1,7]naphthyridin-5-yl)-5-methyl-piperidin-3-ylamine]",IFNα and IL-6 production,[1],dose-dependently decreases
same,IFNα and IL-6 production,[2],dose-dependently decreases
same,IFNα and IL-6 production,[6],dose-dependently decreases

# Reference: US20240024308A1, “TLR7/8 ANTAGONISTS FOR THE TREATMENT OF CORONAVIRUS INFECTIONS” (Merck Healthcare KGaA, priority 2020, published 2024)
